This is an account of results in patent US20110039809A1 (priority 2008, published 2011).

The conditions of series [1]: cited from earlier work.
In series [2] the test system is bone-specific alkaline phosphatase (BAP). The series is described as follows: Clinical trial: bone-specific alkaline phosphatase (BAP), serum marker. Type of series: in vivo, human. As to conditions: for BAP, GLM least square mean after 4 months: daily 20 μg or weekly 140 μg oral, adjusted for baseline, age, body mass index, postmenopausal women. The source says:
(§1) Each group included five subjects.
(§2) Equimolar quantities of both substances were investigated.
(§3) Each dosage was consumed orally at breakfast.
(§4) Treatment duration was 4 months.

Another series has as its system deoxypyridinoline (DPD). The series is described as follows: Clinical trial: bone resorption marker deoxypyridinoline (DPD), urine marker. Type of series: in vivo, human. The note with it: for DPD, GLM least square mean after 4 months: daily 20 μg or weekly 140 μg oral, adjusted for baseline, age, body mass index, postmenopausal women.
Description: as §1, §2, §3, §4

Series [3] is described as follows: Clinical trial: plasma 25-OH D after single oral bolus (pharmacokinetics). The note with it: single oral dose 140 μg of each active. The procedure: Subjects were randomly assigned to one of […] treatment groups (i.e., daily, weekly, bolus as single dose, and bolus as combination dose). Each group included five subjects. They are followed for four months in Zürich, Switzerland during the winter.
Equimolar quantities of both substances were investigated. The regimen was based on 20 μg/day (or its equivalent on a weekly basis) of 25-OH D3.
Each dosage was consumed orally at breakfast. The duration of the study was four months for the “Daily” and “Weekly” groups. Subjects enrolled in the “Bolus” group consumed orally a single dosage at the second study visit.
Plasma concentrations of 25-OH D3 (e.g., peak and steady state) were determined by obtaining samples from the subjects at various times after the dosage was ingested. […] The assessments continued on Monday of Weeks 3, 5, 7, 9, 11, 13 and 15.

The mark [4] stands for this setting: daily 20 μg or weekly 140 μg, 4 months, repeated measurement analysis over 13 visits.
The mark [5] stands for this setting: daily or weekly treatment, identical dosages, 4 months.

For 25-hydroxyvitamin D, the “Blood concentration above which hypercalcemia may occur” value in series [1] (in vivo) is on record as “greater than 375 nmol/L”.
Turning to `C=C1CC[C@H](O)C/C1=C/C=C1\CCC[C@]2(C)[C@@H]([C@H](C)CCCC(C)(C)O)CC[C@@H]12` [25-OH D3, 25-hydroxyvitamin D3], the “BAP, GLM least square mean after 4 months” value in series [2] worked out at 74.7 IU/L. Also, the “BAP change vs. Daily/weekly Vitamin D3” value in series [2] (setting [4]) was −2.4%. Moreover, in series [2] (setting [5]), the “Reduction of BAP versus Vitamin D3” value was 2.4%. Further, the “DPD, GLM least square mean after 4 months” value in the series with deoxypyridinoline (DPD) came to 8.2 nmol/mmol creatine. Moreover, the “DPD change vs. Daily/weekly Vitamin D3” value in the series on deoxypyridinoline (DPD) (setting [4]) is −17.0%. In the series on deoxypyridinoline (DPD) (setting [5]), the “Reduction of DPD versus Vitamin D3” value was found to be 17.0%. For the same compound, the “Time span with increase in plasma 25-OH D levels by at least 30 nmol/L” value in series [3] is 4 to 49 h.
Consider `C=C1CC[C@H](O)C/C1=C/C=C1\CCC[C@]2(C)[C@@H]([C@H](C)CCCC(C)C)CC[C@@H]12` [Vitamin D3, cholecalciferol], for which the “BAP, GLM least square mean after 4 months” value in series [2] was found to be 76.5 IU/L. In the series on deoxypyridinoline (DPD), the “DPD, GLM least square mean after 4 months” value is reported as 9.8 nmol/mmol creatine. In addition, the “Time span with increase in plasma 25-OH D levels by at least 30 nmol/L” value in series [3] is “no increase of that magnitude was observed”.
For Vitamin D, in series [1] (250 μg/day vitamin D), the “Blood concentration of 25-hydroxyvitamin D after ingestion of the safe upper level as dietary supplement” value is given as “about 200 nmol/L”.
